SMILES strings stand for the structures.

The nature of this series: RP, Thermo Scientific Hypersil GOLD, 200 × 2.1 mm, 1.9 µm, 40 °C, 0.4 mL/min, estimated dead time 1.1 min; A: water + 0.2% formic acid; B: acetonitrile; gradient (min/%B) 0/10 0.5/10 22/100 30/100 30.2/10 35/10. Conditions: stereoisomer not certain.
Take `CC1CCC2(NC1)OC1CC3C4CCC5CC(OC6OC(CO)C(OC7OC(CO)C(O)C(OC8OCC(O)C(O)C8O)C7OC7OC(CO)C(O)C(O)C7O)C(O)C6O)CCC5(C)C4CCC3(C)C1C2C` (centres undefined) [tomatin]: the LC retention time was 7.55 min.
The value for `COc1ccc(C2CC(=O)c3c(O)cc(OC4OC(COC5OC(C)C(O)C(O)C5O)C(O)C(O)C4O)cc3O2)cc1O` (centres undefined) [hesperetin 7-rutinoside] was 6.39 min; that for `O=C1CC(c2ccc(O)cc2)Oc2cc(O)cc(O)c21` (centres undefined) [naringenin] was 8.88 min.
Turning to `CC1CCC2(C(=O)O)CCC3(C)C(=CCC4C5(C)CCC(O)C(C)(C)C5CCC43C)C2C1C` (centres undefined) [ursolic acid], the LC retention time was 19.2 min.
The value for `COc1ccc(C2CC(=O)c3c(O)cc(OC4OC(CO)C(O)C(O)C4OC4OC(C)C(O)C(O)C4O)cc3O2)cc1O` (centres undefined) [hesperetin 7-O-neohesperidoside] was 6.61 min; that for `CC1OC(OC2C(Oc3cc(O)c4c(c3)OC(c3ccc(O)cc3)CC4=O)OC(CO)C(O)C2O)C(O)C(O)C1O` (centres undefined) [naringenin 7-O-neohesperidoside] was 6.18 min.
For `CC1OC(OCC2OC(Oc3c(-c4ccc(O)cc4)oc4cc(O)cc(O)c4c3=O)C(O)C(O)C2O)C(O)C(O)C1O` (centres undefined) [kaempferol 3-rutinoside], the LC retention time is 5.64 min.
As to `C=C(C)C1CCC2(C(=O)O)CCC3(C)C(CCC4C5(C)CCC(O)C(C)(C)C5CCC43C)C12` (centres undefined) [betulinic acid], the LC retention time is 18.8 min.
The value for `O=C(CCc1ccc(O)cc1)c1c(O)cc(O)cc1OC1OC(CO)C(O)C(O)C1O` (centres undefined) [phloridzin] was 6.77 min.
On to `O=C(O)c1cc(O)c(O)c(O)c1` [gallic acid], for which the LC retention time was 1.6 min.
The result for `COc1cc(-c2[o+]c3cc(O)cc(O)c3cc2OC2OC(CO)C(O)C(O)C2O)cc(OC)c1O` (centres undefined) [malvidin 3-glucoside] reads 3.86 min; that for `CC1OC(OCC2OC(Oc3c(-c4ccc(O)c(O)c4)oc4cc(O)cc(O)c4c3=O)C(O)C(O)C2O)C(O)C(O)C1O` (centres undefined) [quercetin 3-rutinoside], 5.07 min; that for `O=c1c(O)c(-c2ccc(O)cc2)oc2cc(O)cc(O)c12` [kaempferol], 9.01 min.
For `CC1CCC2(C(=O)O)CCC3(C)C(=CCC4C5(C)CC(O)C(O)C(C)(CO)C5CCC43C)C2C1C` (centres undefined) [asiatic acid], the LC retention time is 12.7 min.
On to `O=C(C=Cc1ccc(O)c(O)c1)OCCc1ccccc1` [caffeic acid phenylethyl ester], for which the LC retention time was 12.2 min.
Regarding `CC=C1C(OC2OC(CO)C(O)C(O)C2O)OC=C(C(=O)OC)C1CC(=O)OCCc1ccc(O)c(O)c1` (centres undefined) [oleuropein], the LC retention time is 7.05 min.
Take `COc1cc(CC(CO)C(CO)Cc2ccc(O)c(OC)c2)ccc1O` (centres undefined) [secoisolariciresinol]: the LC retention time was 6.86 min.
The value for `CC1(C(=O)O)CCC2(C)CCC3(C)C(=CC(=O)C4C5(C)CCC(O)C(C)(C)C5CCC43C)C2C1` (stereo not drawn) [18beta-glycyrrhetinic acid] was 16.6 min.
Regarding `O=C(O)/C=C/c1ccc(O)cc1` [p-coumaric acid], the LC retention time is 5.04 min.
The result for `CC1OC(Oc2c(-c3ccc(O)c(O)c3)oc3cc(O)cc(O)c3c2=O)C(O)C(O)C1O` (centres undefined) [quercetin 3-rhamnoside] reads 6.02 min; that for `O=C(O)c1ccc(O)c(O)c1` [protocatechuic acid], 2.41 min.
The result for `CC1CCC2C(C)C3C(CC4C5CC=C6CC(OC7OC(CO)C(OC8OC(C)C(O)C(O)C8O)C(O)C7OC7OC(C)C(O)C(O)C7O)CCC6(C)C5CCC43C)N2C1` (stereo not drawn) [alpha-chaconine] reads 7.97 min.
The result for `O=c1cc(-c2ccc(O)c(O)c2)oc2cc(O)cc(O)c12` [luteolin] reads 7.75 min.
For the molecule `O=c1c(O)c(-c2ccc(O)c(O)c2)oc2cc(O)cc(O)c12` [quercetin], the LC retention time was 7.8 min.
The result for `CC(C)C1=CC2=CCC3C(C)(C(=O)O)CCCC3(C)C2CC1` (centres undefined) [abietic acid] reads 19.3 min; that for `OCCc1ccc(O)c(O)c1` [hydroxytyrosol], 2.46 min; that for `COc1cc(CC2COC(c3ccc(O)c(OC)c3)C2CO)ccc1O` (centres undefined) [lariciresinol], 7.24 min.
The value for `O=c1c(O)c(-c2ccc(OC3OC(CO)C(O)C(O)C3O)c(O)c2)oc2cc(O)cc(O)c12` (centres undefined) [quercetin 4'-glucoside] was 6.25 min; that for `O=C(C=Cc1ccc(O)c(O)c1)OC1CC(O)(C(=O)O)CC(O)C1O` (centres undefined) [chlorogenic acid] was 3.21 min; that for `CC1CCC2C(C)C3C(CC4C5CC=C6CC(OC7OC(CO)C(O)C(OC8OC(CO)C(O)C(O)C8O)C7OC7OC(C)C(O)C(O)C7O)CCC6(C)C5CCC43C)N2C1` (stereo not drawn) [alpha-solanine] was 7.91 min.
The value for `COc1cc(-c2oc3cc(O)cc(O)c3c(=O)c2O)ccc1O` [isorhamnetin] was 9.25 min.
For `O=c1ccc2ccc(O)cc2o1` [7-hydroxycoumarin], the LC retention time is 5.43 min.
The value for `COc1ccc(C2CC(=O)c3c(O)cc(O)cc3O2)cc1O` (centres undefined) [hesperetin] was 9.3 min; that for `O=C(C=Cc1ccc(O)cc1)OC1CC(O)(C(=O)O)CC(O)C1O` (centres undefined) [p-coumarlyquinnic acid] was 4.21 min.

The values above are taken from the RepoRT retention time repository.
